The term EC50 denotes the concentration that produces a half-maximal response. Usually IC50 stands for the midpoint of a concentration-inhibition curve. Higher therefore signals a need for much substance.

Values joined by “and” are separate entries in the source; they are usually repeats but may differ in a detail not shown here. Equal values may be shown once. Active and inactive are the calls of the source.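 Rule for the calls: active = compounds giving half or more protection of infected cells from virus-caused growth loss, again on retest; inactive = the rest.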 Where a SMILES comes first, the peptide text is derived from it. The star is where a group is joined. Cbz = O=C(OCc1ccccc1)* Bounds are passed on as bounds.

Here are results for 48 compounds from PubChem BioAssay AID179 (DTP/NCI, 2004).

For this assay, the system named is CEM cells HIV-1 protection, formazan growth assay. Put plainly: NCI AIDS Antiviral Assay. Conditions: for IC50: measured here: growth of uninfected CEM cells. The essentials:
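Screen of anti-HIV-1 activity in human CEM cells using a formazan-based growth measurement at five drug concentrations. Hits with 50% or greater protection were repeated, and confirmation required reproducible complete protection.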

As for `Cc1cccc(NC(=O)NCCOC(=O)OCCNC(=O)Nc2cccc(C)c2C)c1C`, the EC50 was over 200 µM and the IC50 is over 200 µM.
As for `NC(=O)C1=CN(Cc2ccc(F)cc2)c2ccccc2C1S(=O)(=O)O` (stereo not drawn), the result was inactive and the IC50 was determined as 245 µM.
In the case of `Nc1ncnc2c1ncn2C1OC(CO)(C(F)(F)F)C(O)C1O` (stereo not drawn), the EC50 is over 200 µM and the IC50 worked out at 182 µM.
`Cc1csc2nc(-c3ccco3)nn12`: the EC50 is over 200 µM and the IC50 was over 200 µM.
`O=C(O)CCc1c2ccc(=O)c(O)c-2oc2c(O)c(O)ccc12` showed an EC50 of 85.1 µM and an IC50 of 102 µM.
On to `CC(=O)NC1COC(COC(=O)CCCCCCCCCCNC(=O)c2ccc([N+](=O)[O-])c3c(=O)c4ccccc4[nH]c23)C(O)C1OC(C)C(=O)NC(C(=O)NC(CCC(N)=O)C(=O)OCc1ccccc1)C(C)C` (stereo not drawn), for which the EC50 was over 9.55 µM and the IC50 is over 9.55 µM.
For the compound `O/N=C1\CC(c2ccccc2)Oc2ccccc21` (stereo not drawn), the EC50 is over 200 µM and the half-inhibitory concentration (IC50) turned out to be 126 µM.
For `Cc1cc2cc3ccc4cccc5ccc(c2oc1=O)c3c45`, the outcome was inactive.
Regarding `CCOC(=O)c1nc2cc(Cl)ccc2[nH]c1=O`, the EC50 was over 200 µM and the IC50 is 105 µM.
As to `O=C(O)c1ccccc1O`, the EC50 is over 1820 µM, the outcome was inactive and the IC50 turned out to be 692 µM.
`COC(=O)C(CC(C)C)NC(=O)C(CCCN=C(N)N)NC(=O)OCc1ccccc1` (stereo not drawn) (Cbz-Arg-Leu-OMe; configuration not given here): the EC50 was over 200 µM and the IC50 was over 200 µM.
With `O=C(CCc1ccccc1)ON1C(=S)C(c2ccccc2)(c2ccccc2)N=C1Sc1ccccc1`, the EC50 was over 200 µM and the IC50 came to 25.7 µM.
`C=CCN1CCC2(CC1)NC(=O)c1ccccc1O2`: the EC50 is over 200 µM and the IC50 was over 200 µM.
Turning to `CC1(C)OCC(C)(C)C(O)C1=O` (stereo not drawn), the EC50 is over 1450 µM and the IC50 amounted to 977 µM.
`O=S(=O)(c1ccc(NC(=S)Nc2ccccc2)cc1)c1ccc(NC(=S)Nc2ccccc2)cc1`: the EC50 is over 200 µM and the half-inhibitory concentration (IC50) was over 200 µM.
In the case of `C[Si](C)(C)OC1(C2=CCCC2)CCCC1CC#N` (stereo not drawn), the EC50 was over 955 µM and the IC50 was over 955 µM.
As for `[N-]=[N+]=CC(=O)C1(C(=O)C=[N+]=[N-])CC1`, the EC50 is over 251 µM and the IC50 was 240 µM.
Take `O=C1CSC(c2c[nH]c3ccccc23)N1c1ccccc1[N+](=O)[O-]` (stereo not drawn): the EC50 was over 389 µM and the IC50 is over 389 µM.
Turning to `CC1(C)CN(C(=O)OCc2ccccc2)[C@@H]2N1C(=O)[C@@]2(C)OCCCO[C@]1(C)C(=O)N2[C@H]1N(C(=O)OCc1ccccc1)CC2(C)C`, the EC50 is over 200 µM and the IC50 was over 200 µM.
Consider `COc1ccc(C2OC(=O)c3ncccc32)cc1` (stereo not drawn), for which the EC50 is over 200 µM and the IC50 is over 200 µM.
`NS(=O)(=O)c1ccc(-c2c3nc(c(-c4ccc(S(N)(=O)=O)cc4)c4ccc([nH]4)c(-c4ccc(S(N)(=O)=O)cc4)c4nc(c(-c5ccc(S(N)(=O)=O)cc5)c5ccc2[nH]5)C=C4)C=C3)cc1`: the EC50 is over 97.7 µM and the IC50 was determined as 46.8 µM.
For `COc1ccc(-c2c(C#N)c(N)n(C3OCC(OC(C)=O)C(OC(C)=O)C3OC(C)=O)c(=S)c2C#N)cc1` (stereo not drawn), the EC50 was over 200 µM; the 50% inhibitory concentration (IC50) is 20.9 µM and 29.5 µM.
For `O=C(Nc1ccccc1)C(c1ccccc1)N(Nc1ccccc1Cl)c1ccccc1Cl` (stereo not drawn), the EC50 is over 200 µM and the IC50 came to 33.9 µM.
For the compound `N#CC(C#N)=CN`, the EC50 is over 200 µM and the half-maximal inhibitory concentration (IC50) is over 200 µM.
As to `O=C1c2cccc3cccc(c23)C(=O)N1c1ccc([N+](=O)[O-])cc1[N+](=O)[O-]`, the EC50 was over 200 µM and the IC50 was determined as 120 µM.
Taken in the same sequence, the figures for `C[Si](C)(C)C#CC#C[Si](C)(C)C.[C-]#[O+].[C-]#[O+].[C-]#[O+].[C-]#[O+].[C-]#[O+].[C-]#[O+].[C-]#[O+].[C-]#[O+].[C-]#[O+].[C-]#[O+].[C-]#[O+].[C-]#[O+].[Co].[Co].[Co].[Co]` were over 1.91 µM and over 1.91 µM.
Taken in the same sequence, the figures for `COc1ccc(C2[C@H]3C(=O)N(c4ccc(Cc5ccc(N6C(=O)[C@@H]7ON(c8ccccc8)C(c8ccc(OC)cc8)[C@@H]7C6=O)cc5)cc4)C(=O)[C@H]3ON2c2ccccc2)cc1` (stereo partly drawn) were over 4.68 µM and over 4.68 µM.
For `CC1=CC2(O)OC3(CC2=C(C)C)C(C)CCC13` (stereo not drawn), the EC50 is over 200 µM and the IC50 was over 200 µM.
`O=[N+]([O-])c1ccc2c(c1)C(N1CCN(CCO)CC1)Cc1ccc(F)cc1S2` (stereo not drawn): the EC50 is over 200 µM and the IC50 was 22.4 µM.
Consider `COc1c(I)c(OC)c2c(c1I)O[C@@H]1OCC[C@H]21`, for which the EC50 is over 501 µM and the IC50 turned out to be 240 µM.
Taken in the same sequence, the figures for `NS(=O)(=O)c1ccc(NC(=O)c2ccc3nc4ccccc4c(Nc4ccc(S(N)(=O)=O)cc4)c3c2)cc1` were 67.6 µM and over 200 µM.
Taken in the same sequence, the figures for `CCN(CC)CCN1CC(=O)N2CCCCN2C(=O)C1` were over 200 µM and over 200 µM.
On the same counts, the results for `COc1ccc(C)cc1NC(=O)C(Br)C(Br)C(=O)O` (stereo not drawn) are over 200 µM and 13.5 µM.
Turning to `CO/N=C1/C(n2[nH]c(=O)n(-c3ccccc3)c2=O)C2C=CC1n1c(=O)n(-c3ccccc3)c(=O)n12` (stereo not drawn), the EC50 was over 200 µM and the IC50 is over 200 µM.
Consider `Cc1cccc(N=C2NC(=O)C(CC(=O)Nc3cccc(C)c3C)S2)c1` (stereo not drawn), for which the EC50 is over 70.8 µM and the IC50 is over 70.8 µM.
For the compound `C=CCNC(=S)NNC(=S)NCC=C`, the EC50 is over 200 µM and the IC50 worked out at 23.4 µM.
Regarding `O=C(Cc1csc(-c2nc(CC(=O)NNc3ccccc3)cs2)n1)NNc1ccccc1`, the EC50 was over 145 µM and the IC50 is over 145 µM.
`N#Cc1c(-c2ccccc2)c(C#N)c(=S)n(C2OCC(O)C(O)C2O)c1N` (stereo not drawn): the EC50 is over 200 µM; the IC50 is 195 µM and > 200 µM.
For the compound `COC(=O)C1=CN(C2CCCCC2)C2(c3ccccc3)c3ccccc3C(=O)OC(=O)C12` (stereo not drawn), the EC50 was 132 µM and the IC50 was over 200 µM.
As to `CC1=CC2=C(OCO1)C(=O)c1ccccc1C2=O`, the result was inactive.
Same read-out and setting: the entry for `Cc1cc(N)c2cc(NC(=O)CCCCCCCCC(=O)Nc3ccc4nc(C)cc(N)c4c3)ccc2n1` is “inactive”.
Turning to `Cn1cnc([N+](=O)[O-])c1Sc1nnnn1C`, the EC50 is over 1020 µM and the IC50 worked out at 5.5 µM.
As for `N#Cc1ccccc1/C=N/O`, the EC50 was over 35.5 µM and the IC50 is over 35.5 µM.
`COc1c(C)cc(C(=O)c2cc(C)c(OC)c(Br)c2)cc1Br`: the EC50 is over 100 µM and the IC50 worked out at 95.5 µM.
As for `Brc1ccc(N2N=NC3CN(c4ccccc4)CC32)cc1` (stereo not drawn), the EC50 was over 100 µM and the IC50 amounted to 58.9 µM.
On the same counts, the results for `CCOC(=O)CC1(CC(=O)OCC)C(=O)N(C)c2ccccc21` are over 200 µM and over 200 µM.
On the same counts, the results for `Cc1c2oc(=O)cc(-c3ccccc3)c2cc2c(=O)ccoc12` are over 22.4 µM and over 22.4 µM.
Turning to `CC1=NN(C(=O)c2ccc(O)cc2)C(=O)C1N=Nc1ccccc1C(=O)O` (stereo not drawn), the result was inactive.
